The numbers were not newly measured in patent US9309575B2, “Mutant strains of Escherichia coli, a method of testing potential antibacterial agents using said strains as well as a testing kit” (Instytut Biologii Doswiadczalnej IM. M. Nenckiego Pan, priority 2010, dated 2016), which cites them from elsewhere.

The test system of this data set is gram-negative bacteria. The conditions noted are these: at concentrations of 1-10 μg/ml.

As to polymyxin B nonapeptide [PMBN], the biocidal properties entry was “does not exhibit biocidal properties”.
